According to patent publication US9926529B2, “Derivation of neural stem cells and dopaminergic neurons from human pluripotent stem cells” (International Stem Cell Corporation, priority 2012, dated 2018):

Experiments:
Type in all cases: cell-based, human
[1] = test system: hPSC-NSC derived DA neurons; assay: FACS analysis of derived DA neurons stained for TH; details: after 30 days of differentiation with guggulsterone
Description: (§1) To obtain DA neurons, hPSC-NSC were first primed into DA precursors with 100 ng/mL FGF8 and 2 μM Purmorphamine for 7 days and then used to screen for small molecules that induce terminal dopaminergic differentiation (FIG. 6A). The DA precursors were plated at 2000 cells/well of a 96-well plate and treated with a small molecule library (Tocris 1120 biologically active compounds) at 2.5 μM for two weeks (FIG. 6A). Dopaminergic differentiation was assessed by neurite outgrowth and ELISA analysis for dopamine release (FIG. 6A). From this screen, guggulsterone (GS), a naturally occurring steroid, was identified among the best inducers of dopaminergic differentiation (FIG. 6A). After 30 days of differentiation, GS-treated neurons appeared mature with elaborate neurite extensions. […] Spontaneous action potentials were recorded in whole cultures of GS-treated neurons using a microelectrode array (MEA) system (FIG. 6J). […]
For flow cytometry analysis, 1 million cells per sample were harvested with Accutase, washed with PBS, and fixed with 4% paraformaldehyde for 30 min at room temperature. […] The samples were run on a Becton Dickinison FACSCalibur™ 4-color flow cytometer and the data was analyzed with CellQuest Pro™ software (v6.0). […]

[2] = test system: hPSC-NSCs; assay: Dopamine ELISA of conditioned medium (dopamine release)
Description: as §1
Conditioned medium from the top neurite inducers (Table 1) (wells containing the highest density of neurites compare to control 0.1% DMSO treated) were collected and analyzed using a dopamine ELISA assay (Cosmo Bio). […] Supernatant was then collected and analyzed for quantitative determination of dopamine using a commercial dopamine ELISA assay kit (CusaCosmo Bio). Data analysis was performed using the microtiter plate reader (BIO-TEK Synergy 2). […]

[3] = test system: hPSC-NSCs; assay: Percentage of TH positive cells produced by chemical treatment; details: chemical treatment 2.5 μM for two weeks
Description: The method specifically involved treating both hESC-H9-NSCs (Invitrogen) and hPSC-NSCs with Purmorphamine (2 μM) and FGF8 (100 ng/mL) in NB medium [NeuroBasal medium, 1× GlutaMAX, 1× N2/B27 Supplement (Invitrogen)] for 7 days. After 7 days of Purmorphamine and FGF8 treatment, the NSCs were dissociated with Accutase (Sigma) and plated 20,000 cells/mL into Matrigel coated 96 well plates and treated with small molecule library (Torcris 1120 Biologically Active Compounds) at 2.5 μM final concentration for two weeks (FIG. 6A). Two weeks after treatment with small molecules, all wells were visually observed and scored based on neurite density and dopamine release. For measuring neurite density, cells were fixed with 4% paraformaldehyde and phase contrast images were acquired using Cellavista Cell Imaging System (Roche Applied Science) from randomly selected fields. Neurite density was measured using the Cellavista density software image processing program. Each experimental condition was done in duplicate wells, and at least three independent experiments were conducted to acquire the final results.
Conditioned medium from the top neurite inducers (Table 1) (wells containing the highest density of neurites compare to control 0.1% DMSO treated) were collected and analyzed using a dopamine ELISA assay (Cosmo Bio). Conditioned medium was collected from samples containing 50,000 cells per well and centrifuged at 3000 RPM to remove cell debris. Supernatant was then collected and analyzed for quantitative determination of dopamine using a commercial dopamine ELISA assay kit (CusaCosmo Bio). Data analysis was performed using the microtiter plate reader (BIO-TEK Synergy 2). The results presented are from three independent experiments (n=3) and represented as mean±standard error of mean (s.e.m.) and statistical analysis was performed using the two-tailed Student's t-test with a confidence level of 95% (α=0.05) with statistical significance of P<0.05. Additionally, total RNA from each well were collected and analyze by RT-PCR for expression of TuJ1, MAP2, TH, GRK2, EN1, DAT, AADC, PAX2, NURR1, PITX3 and LMX1B from hPSC-NSCs (Table 2). […] Analysis of the ELISA data indicated the top small molecule neurite inducers produced higher levels of dopamine than control non-treated cells (1.5 ng/mL). […] The percentages of TH positive cells produced by chemical treatment with Kenpaullone (33%), Guggulsterone (35%), Kynurenic Acid (19%), Immedthridine Dihydrobromide (21%), and Dimaprit Dihydrochloride (18%) were higher than 15% of TH positive cells obtained from hPSC-NSCs differentiated for ≥1 month using a standard dopaminergic differentiation medium (BDNF 20 ng/mL, GDNF 20 ng/mL, cAMP 200 μM, Abscorbic Acid 200 μM, TGFβ3 2 ng/mL and DAPT).

C/C=C1\C(=O)C[C@H]2[C@@H]3CCC4=CC(=O)CC[C@]4(C)[C@H]3CC[C@]12C [Guggulsterone]
cells gated TH positive (FACS) [1]: more than 97%
increase in dopamine secretion compared to control cells (ELISA) ([2]; control: NSCs 1 week FGF8 and purmorphamine, 2 weeks 0.1% DMSO instead of GS): five-fold increase
levels of Dopamine spontaneous release ([2]; treated hPSC-NSCs, compared among top hits): highest levels
percentage of TH positive cells [3]: 35%
